# How the values were obtained:
# [1] = molecular target: Rho kinase 2 (ROCK-II) (Homo sapiens, UniProt O75116); test: In vitro Rho kinase inhibitory activity assay (ADP-Glo), Rho kinase 2; assay type: biochemical; details: 10 μM ATP, 25° C., expressed as range of activity
# Summary of the method: (§1)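 First, compound was incubated with either Rho kinase isoform for 30 mins at 25 °C; next, ATP was added to 10 μM final with 2.5 μM Myelin Basic Protein substrate; after 1 hour, ADP formed was detected by ADP-Glo luminescence. Dose-response data yielded IC50, converted to Ki using Cheng-Prusoff.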
# [2] = molecular target: Rho kinase 1 (ROCK-I) (Homo sapiens, UniProt Q13464); test: In vitro Rho kinase inhibitory activity assay (ADP-Glo), Rho kinase 1; assay type: biochemical; details: 10 μM ATP, 25° C., expressed as range of activity
# Summary of the method: as §1
# Rho kinase 2 (ROCK-II), sequence (O75116 whole entry, canonical isoform): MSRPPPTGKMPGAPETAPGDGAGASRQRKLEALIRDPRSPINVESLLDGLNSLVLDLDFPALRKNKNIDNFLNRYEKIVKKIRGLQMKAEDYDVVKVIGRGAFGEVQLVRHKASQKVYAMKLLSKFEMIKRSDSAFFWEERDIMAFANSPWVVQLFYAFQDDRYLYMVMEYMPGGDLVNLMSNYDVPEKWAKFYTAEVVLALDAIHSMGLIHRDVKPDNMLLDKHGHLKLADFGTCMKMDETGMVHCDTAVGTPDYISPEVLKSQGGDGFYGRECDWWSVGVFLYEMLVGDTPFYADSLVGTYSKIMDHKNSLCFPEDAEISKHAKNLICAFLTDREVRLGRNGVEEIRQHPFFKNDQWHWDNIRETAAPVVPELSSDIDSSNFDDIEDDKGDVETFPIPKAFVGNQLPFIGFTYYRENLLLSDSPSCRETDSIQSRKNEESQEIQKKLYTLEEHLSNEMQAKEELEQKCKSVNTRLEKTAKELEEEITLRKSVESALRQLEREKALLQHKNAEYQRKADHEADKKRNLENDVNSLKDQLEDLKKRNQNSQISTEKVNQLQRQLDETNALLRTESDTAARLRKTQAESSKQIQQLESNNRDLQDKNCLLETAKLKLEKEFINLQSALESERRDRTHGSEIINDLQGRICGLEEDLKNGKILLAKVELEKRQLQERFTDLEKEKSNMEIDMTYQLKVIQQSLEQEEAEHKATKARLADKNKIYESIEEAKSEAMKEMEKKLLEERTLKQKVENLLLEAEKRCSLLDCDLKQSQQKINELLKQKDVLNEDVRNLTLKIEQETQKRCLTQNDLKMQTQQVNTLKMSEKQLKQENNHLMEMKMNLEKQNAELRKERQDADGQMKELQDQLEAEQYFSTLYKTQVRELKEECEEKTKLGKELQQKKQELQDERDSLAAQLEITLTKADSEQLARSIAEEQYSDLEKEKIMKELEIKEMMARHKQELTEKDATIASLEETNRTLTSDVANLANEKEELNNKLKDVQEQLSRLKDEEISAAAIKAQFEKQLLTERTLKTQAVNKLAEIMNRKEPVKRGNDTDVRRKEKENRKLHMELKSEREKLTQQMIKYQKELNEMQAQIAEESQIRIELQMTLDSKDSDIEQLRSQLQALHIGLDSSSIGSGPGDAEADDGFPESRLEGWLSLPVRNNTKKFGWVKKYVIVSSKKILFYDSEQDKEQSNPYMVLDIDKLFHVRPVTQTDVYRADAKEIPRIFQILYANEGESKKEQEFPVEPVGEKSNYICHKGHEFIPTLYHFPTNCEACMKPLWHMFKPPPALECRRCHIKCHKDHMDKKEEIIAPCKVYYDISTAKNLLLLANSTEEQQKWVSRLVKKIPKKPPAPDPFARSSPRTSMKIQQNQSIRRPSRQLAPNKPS
# Rho kinase 1 (ROCK-I), sequence (Q13464 whole entry): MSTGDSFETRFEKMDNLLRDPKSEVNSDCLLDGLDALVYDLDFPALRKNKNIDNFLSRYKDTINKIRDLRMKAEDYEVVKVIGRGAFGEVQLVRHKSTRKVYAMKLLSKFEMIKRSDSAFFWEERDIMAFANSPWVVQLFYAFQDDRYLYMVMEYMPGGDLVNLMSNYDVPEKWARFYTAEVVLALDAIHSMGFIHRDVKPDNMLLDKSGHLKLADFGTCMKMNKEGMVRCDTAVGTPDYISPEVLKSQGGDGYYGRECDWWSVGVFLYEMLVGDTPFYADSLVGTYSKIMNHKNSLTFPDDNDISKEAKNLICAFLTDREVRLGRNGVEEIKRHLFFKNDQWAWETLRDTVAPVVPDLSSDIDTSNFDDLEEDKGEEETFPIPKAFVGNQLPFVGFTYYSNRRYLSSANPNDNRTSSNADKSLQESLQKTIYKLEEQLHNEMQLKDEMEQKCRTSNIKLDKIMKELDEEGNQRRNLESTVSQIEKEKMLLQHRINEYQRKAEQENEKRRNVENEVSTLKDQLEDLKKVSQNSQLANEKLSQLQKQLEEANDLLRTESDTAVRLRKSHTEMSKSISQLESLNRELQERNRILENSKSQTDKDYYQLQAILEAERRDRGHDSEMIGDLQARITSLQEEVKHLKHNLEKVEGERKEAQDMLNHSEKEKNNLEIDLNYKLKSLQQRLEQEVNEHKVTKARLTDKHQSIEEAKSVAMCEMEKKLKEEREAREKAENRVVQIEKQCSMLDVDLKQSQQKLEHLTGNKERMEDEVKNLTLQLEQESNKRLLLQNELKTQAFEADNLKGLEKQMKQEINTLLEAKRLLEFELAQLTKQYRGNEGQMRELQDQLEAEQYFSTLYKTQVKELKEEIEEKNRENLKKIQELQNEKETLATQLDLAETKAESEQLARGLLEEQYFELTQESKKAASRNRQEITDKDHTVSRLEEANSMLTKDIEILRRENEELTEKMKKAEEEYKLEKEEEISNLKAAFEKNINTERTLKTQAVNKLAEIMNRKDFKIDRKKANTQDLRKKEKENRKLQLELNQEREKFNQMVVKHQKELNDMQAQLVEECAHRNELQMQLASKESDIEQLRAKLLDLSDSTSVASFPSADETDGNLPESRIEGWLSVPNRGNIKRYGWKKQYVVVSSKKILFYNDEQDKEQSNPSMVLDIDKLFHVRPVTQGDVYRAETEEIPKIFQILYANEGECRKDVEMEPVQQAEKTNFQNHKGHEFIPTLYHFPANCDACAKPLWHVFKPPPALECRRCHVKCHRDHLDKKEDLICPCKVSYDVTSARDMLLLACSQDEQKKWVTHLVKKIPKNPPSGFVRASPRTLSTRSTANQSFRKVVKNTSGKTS
SMILES,Ki [1] [nM],Ki [2] [nM]
"Cc1c[nH]c2nccc(Oc3ccc(C[C@H](N)C(=O)NCC4CCN(C)CC4)cc3F)c12 [Example 40, (S)-2-amino-3-(3-fluoro-4-((3-methyl-1H-pyrrolo[2,3-b]pyridin-4-yl)oxy)phenyl)-N-((1-methylpiperidin-4-yl)methyl)propanamide]",< 3,3 to 30
"CN1CCC(NC(=O)[C@@H](N)Cc2ccc(Oc3ccnc4[nH]ccc34)cc2)CC1 [Example 103, (S)-3-(4-((1H-pyrrolo[2,3-b]pyridin-4-yl)oxy)phenyl)-2-amino-N-(1-methylpiperidin-4-yl)propanamide]",3 to 30,3 to 30
"Cc1c[nH]c2ncnc(Oc3ccc(C[C@H](N)C(=O)N4CCN(Cc5ccccn5)CC4)cc3F)c12 [Example 120, (S)-2-amino-3-(3-fluoro-4-((5-methyl-7H-pyrrolo[2,3-d]pyrimidin-4-yl)oxy)phenyl)-1-(4-(pyridin-2-ylmethyl)piperazin-1-yl)propan-1-one]",< 3,3 to 30
"Cc1noc(C2CCN(C(=O)[C@@H](N)Cc3ccc(Oc4ccnc5[nH]cc(C)c45)c(F)c3)C2)n1 (single isomer, unassigned) [Example 8A]",< 3,< 3
"N[C@@H](Cc1ccc(Oc2ccnc3[nH]ccc23)cc1)C(=O)NC1CCCCC1 [Example 111, (S)-3-(4-((1H-pyrrolo[2,3-b]pyridin-4-yl)oxy)phenyl)-2-amino-N-cyclohexylpropanamide]",< 3,3 to 30
"Cc1c[nH]c2nccc(Oc3ccc(C[C@H](N)C(=O)N4CCC(O)(Cc5ccccc5)CC4)cc3F)c12 [Example 9, (S)-2-amino-1-(4-benzyl-4-hydroxypiperidin-1-yl)-3-(3-fluoro-4-((3-methyl-1H-pyrrolo[2,3-b]pyridin-4-yl)oxy)phenyl)propan-1-one]",< 3,< 3
"Cc1c[nH]c2nccc(Oc3ccc(C[C@H](N)C(=O)N4CCc5ccccc5C4)cc3F)c12 [Example 10, (S)-2-amino-1-(3,4-dihydroisoquinolin-2(1H)-yl)-3-(3-fluoro-4-((3-methyl-1H-pyrrolo[2,3-b]pyridin-4-yl)oxy)phenyl)propan-1-one]",< 3,< 3
"CN(C(=O)[C@@H](N)Cc1ccc(Oc2ccnc3[nH]ccc23)cc1)C1CCCCC1 [Example 101, (S)-3-(4-((1H-pyrrolo[2,3-b]pyridin-4-yl)oxy)phenyl)-2-amino-N-cyclohexyl-N-methylpropanamide]",3 to 30,3 to 30
"Cc1c[nH]c2nccc(Oc3ccc(CC(N)C(=O)NC4Cc5ccccc5C4)cc3F)c12 (stereo not shown) [Example 63, 2-amino-N-(2,3-dihydro-1H-inden-2-yl)-3-(3-fluoro-4-((3-methyl-1H-pyrrolo[2,3-b]pyridin-4-yl)oxy)phenyl)propanamide]",< 3,< 3
"N[C@H](Cc1ccc(Oc2ccnc3[nH]ccc23)cc1)C(=O)NC1CCOCC1 [Example 100, (R)-3-(4-((1H-pyrrolo[2,3-b]pyridin-4-yl)oxy)phenyl)-2-amino-N-(tetrahydro-2H-pyran-4-yl)propanamide]",> 30,> 30
"Cc1c[nH]c2nccc(Oc3ccc(C[C@H](N)C(=O)N4CCC(S(=O)(=O)c5ccccc5)CC4)cc3F)c12 [Example 7, (S)-2-amino-3-(3-fluoro-4-((3-methyl-1H-pyrrolo[2,3-b]pyridin-4-yl)oxy)phenyl)-1-(4-(phenylsulfonyl)piperidin-1-yl)propan-1-one]",< 3,< 3
"N[C@H](Cc1ccc(Oc2ccnc3[nH]ccc23)cc1)C(=O)NCC1CCCCC1 [Example 108, (R)-3-(4-((1H-pyrrolo[2,3-b]pyridin-4-yl)oxy)phenyl)-2-amino-N-(cyclohexylmethyl)propanamide]",3 to 30,3 to 30
"Cc1c[nH]c2ncnc(Oc3ccc(C[C@H](N)C(=O)NCCCN(C)C)cc3F)c12 [Example 116, (S)-2-amino-N-(3-(dimethylamino)propyl)-3-(3-fluoro-4-((5-methyl-7H-pyrrolo[2,3-d]pyrimidin-4-yl)oxy)phenyl)propanamide]",3 to 30,3 to 30
"Cc1c[nH]c2ncnc(Oc3ccc(C[C@H](N)C(=O)N4CCC(S(=O)(=O)c5ccccc5)CC4)cc3F)c12 [Example 127, (S)-2-amino-3-(3-fluoro-4-((5-methyl-7H-pyrrolo[2,3-d]pyrimidin-4-yl)oxy)phenyl)-1-(4-(phenylsulfonyl)piperidin-1-yl)propan-1-one]",< 3,< 3
"N[C@H](Cc1ccc(Oc2ccnc3[nH]ccc23)cc1)C(=O)NCc1ccccc1 [Example 98, (R)-3-(4-((1H-pyrrolo[2,3-b]pyridin-4-yl)oxy)phenyl)-2-amino-N-benzylpropanamide]",> 30,> 30
"Cc1c[nH]c2nccc(Oc3ccc(C[C@H](N)C(=O)N4C[C@@H](C)N(C)[C@@H](C)C4)cc3F)c12 [Example 17, (S)-2-amino-3-(3-fluoro-4-((3-methyl-1H-pyrrolo[2,3-b]pyridin-4-yl)oxy)phenyl)-1-((3S,5R)-3,4,5-trimethylpiperazin-1-yl)propan-1-one]",< 3,< 3
"NC(Cc1ccc(Oc2ccnc3[nH]ccc23)cc1)C(=O)Nc1ccc(C(F)(F)F)cc1 (stereo not shown) [Example 91, 3-(4-((1H-pyrrolo[2,3-b]pyridin-4-yl)oxy)phenyl)-2-amino-N-(4-(trifluoromethyl)phenyl)propanamide]",< 3,3 to 30
"Cc1c[nH]c2nccc(Oc3ccc(CC(N)C(=O)N4CCCC4c4ccccc4)cc3F)c12 (single isomer, unassigned) [Example 84, 2-amino-3-(3-fluoro-4-((3-methyl-1H-pyrrolo[2,3-b]pyridin-4-yl)oxy)phenyl)-1-(2-phenylpyrrolidin-1-yl)propan-1-one]",3 to 30,3 to 30
"Cc1c[nH]c2nccc(Oc3ccc(C[C@H](N)C(=O)N4CCC(c5ccncc5)CC4)cc3F)c12 [Example 12, (S)-2-amino-3-(3-fluoro-4-((3-methyl-1H-pyrrolo[2,3-b]pyridin-4-yl)oxy)phenyl)-1-(4-(pyridin-4-yl)piperidin-1-yl)propan-1-one]",< 3,< 3
"Cc1c[nH]c2nccc(Oc3ccc(C[C@H](N)C(=O)N(C)CC4CCN(C)CC4)cc3F)c12 [Example 39, (S)-2-amino-3-(3-fluoro-4-((3-methyl-1H-pyrrolo[2,3-b]pyridin-4-yl)oxy)phenyl)-N-methyl-N-((1-methylpiperidin-4-yl)methyl)propanamide]",3 to 30,3 to 30

# Now from value to compound:
Ki [1] [nM],Ki [2] [nM],SMILES
3 to 30,3 to 30,"N[C@H](Cc1cc(F)c(Oc2ccnc3[nH]ccc23)c(F)c1)C(=O)NC1CCCCC1 [Example 229, (R)-3-(4-((1H-pyrrolo[2,3-b]pyridin-4-yl)oxy)-3,5-difluorophenyl)-2-amino-N-cyclohexylpropanamide]"
< 3,< 3,"Cc1c[nH]c2nccc(Oc3ccc(C[C@H](N)C(=O)N4CCN(C(=O)C5CC5)CC4)cc3F)c12 [Example 170, (S)-2-amino-1-(4-(cyclopropanecarbonyl)piperazin-1-yl)-3-(3-fluoro-4-((3-methyl-1H-pyrrolo[2,3-b]pyridin-4-yl)oxy)phenyl)propan-1-one]"
< 3,3 to 30,"Cc1c[nH]c2nccc(Oc3ccc(C[C@H](N)C(=O)N4CCN(C(=O)c5cn(C)cn5)CC4)cc3F)c12 [Example 176, (S)-2-amino-3-(3-fluoro-4-((3-methyl-1H-pyrrolo[2,3-b]pyridin-4-yl)oxy)phenyl)-1-(4-(1-methyl-1H-imidazole-4-carbonyl)piperazin-1-yl)propan-1-one]"
< 3,< 3,"Cc1c[nH]c2nccc(Oc3ccc(C[C@H](N)C(=O)N4CCN(Cc5ccc(OCCCN(C)C)cc5)CC4)cc3F)c12 [Example 160, (S)-2-amino-1-(4-(4-(3-(dimethylamino)propoxy)benzyl)piperazin-1-yl)-3-(3-fluoro-4-((3-methyl-1H-pyrrolo[2,3-b]pyridin-4-yl)oxy)phenyl)propan-1-one]"
< 3,< 3,"Cc1nc(CN2CCN(C(=O)[C@@H](N)Cc3ccc(Oc4ccnc5[nH]cc(C)c45)c(F)c3)CC2)cs1 [Example 157, (S)-2-amino-3-(3-fluoro-4-((3-methyl-1H-pyrrolo[2,3-b]pyridin-4-yl)oxy)phenyl)-1-(4-((2-methylthiazol-4-yl)methyl)piperazin-1-yl)propan-1-one]"
< 3,< 3,"N[C@@H](Cc1ccc(Oc2ccnc3[nH]cc(-c4cccnc4)c23)cc1)C(=O)N1CCN(Cc2ccccc2)CC1 [Example 194, (S)-2-amino-1-(4-benzylpiperazin-1-yl)-3-(4-((3-(pyridin-3-yl)-1H-pyrrolo[2,3-b]pyridin-4-yl)oxy)phenyl)propan-1-one]"
< 3,< 3,"Cc1c[nH]c2nccc(Oc3ccc(C[C@H](N)C(=O)Nc4ccccc4)cc3)c12 [Example 137, (S)-2-amino-3-(4-((3-methyl-1H-pyrrolo[2,3-b]pyridin-4-yl)oxy)phenyl)-N-phenylpropanamide]"
< 3,< 3,"N#Cc1c[nH]c2nccc(Oc3ccc(C[C@H](N)C(=O)N4CCN(Cc5ccccn5)CC4)cc3F)c12 [Example 224, (S)-4-(4-(2-amino-3-oxo-3-(4-(pyridin-2-ylmethyl)piperazin-1-yl)propyl)-2-fluorophenoxy)-1H-pyrrolo[2,3-b]pyridine-3-carbonitrile]"
< 3,< 3,"Cc1c[nH]c2nccc(Oc3ccc(C[C@H](N)C(=O)NCc4ccccc4)cc3)c12 [Example 135, (S)-2-amino-N-benzyl-3-(4-((3-methyl-1H-pyrrolo[2,3-b]pyridin-4-yl)oxy)phenyl)propanamide]"

# — patent US10501461B2, “Tyrosine amide derivatives as Rho-kinase inhibitors” (CHIESI FARMACEUTICI S.P.A., priority 2017, dated 2019)
